{
  "source": "ChEMBL document CHEMBL1201862",
  "about": "“PubChem BioAssay data set” (2004)",
  "key": {"Cytochrome P450 2C9": {"molecular_target": "Cytochrome P450 2C9 (Homo sapiens, UniProt P11712)", "sequence (P11712 whole entry)": "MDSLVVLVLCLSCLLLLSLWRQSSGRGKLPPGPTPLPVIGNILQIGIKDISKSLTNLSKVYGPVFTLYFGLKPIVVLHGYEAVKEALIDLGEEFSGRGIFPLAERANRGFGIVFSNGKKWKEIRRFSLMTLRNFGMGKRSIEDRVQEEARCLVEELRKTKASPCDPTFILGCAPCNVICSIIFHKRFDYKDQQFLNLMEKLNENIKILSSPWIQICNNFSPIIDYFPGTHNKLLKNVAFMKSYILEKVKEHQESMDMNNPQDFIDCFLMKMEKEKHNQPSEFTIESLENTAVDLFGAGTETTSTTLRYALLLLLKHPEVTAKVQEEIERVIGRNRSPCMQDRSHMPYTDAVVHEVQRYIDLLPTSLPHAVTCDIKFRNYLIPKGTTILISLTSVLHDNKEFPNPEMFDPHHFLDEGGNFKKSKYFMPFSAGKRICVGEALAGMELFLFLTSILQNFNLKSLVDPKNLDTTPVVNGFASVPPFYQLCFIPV"}, "Cytochrome P450 2D6": {"molecular_target": "Cytochrome P450 2D6 (Homo sapiens, UniProt P10635)", "sequence (P10635 whole entry)": "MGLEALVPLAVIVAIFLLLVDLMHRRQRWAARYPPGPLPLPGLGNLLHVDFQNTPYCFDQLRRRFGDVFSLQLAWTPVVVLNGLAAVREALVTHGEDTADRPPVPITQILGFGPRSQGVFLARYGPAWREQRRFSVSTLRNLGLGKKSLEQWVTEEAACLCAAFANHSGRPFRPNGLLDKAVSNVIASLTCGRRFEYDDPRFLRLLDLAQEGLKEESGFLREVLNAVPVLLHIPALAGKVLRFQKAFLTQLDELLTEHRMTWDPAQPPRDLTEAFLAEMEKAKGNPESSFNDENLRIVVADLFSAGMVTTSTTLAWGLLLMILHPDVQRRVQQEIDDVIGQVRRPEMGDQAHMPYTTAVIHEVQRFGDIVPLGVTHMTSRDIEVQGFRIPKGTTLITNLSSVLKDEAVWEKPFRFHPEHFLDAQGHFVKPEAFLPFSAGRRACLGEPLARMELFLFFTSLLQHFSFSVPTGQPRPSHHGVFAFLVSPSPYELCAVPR"}, "Cytochrome P450 3A4 [1]": {"molecular_target": "T1, Cytochrome P450 3A4 (Homo sapiens, UniProt P08684)", "T1 sequence (P08684 whole entry)": "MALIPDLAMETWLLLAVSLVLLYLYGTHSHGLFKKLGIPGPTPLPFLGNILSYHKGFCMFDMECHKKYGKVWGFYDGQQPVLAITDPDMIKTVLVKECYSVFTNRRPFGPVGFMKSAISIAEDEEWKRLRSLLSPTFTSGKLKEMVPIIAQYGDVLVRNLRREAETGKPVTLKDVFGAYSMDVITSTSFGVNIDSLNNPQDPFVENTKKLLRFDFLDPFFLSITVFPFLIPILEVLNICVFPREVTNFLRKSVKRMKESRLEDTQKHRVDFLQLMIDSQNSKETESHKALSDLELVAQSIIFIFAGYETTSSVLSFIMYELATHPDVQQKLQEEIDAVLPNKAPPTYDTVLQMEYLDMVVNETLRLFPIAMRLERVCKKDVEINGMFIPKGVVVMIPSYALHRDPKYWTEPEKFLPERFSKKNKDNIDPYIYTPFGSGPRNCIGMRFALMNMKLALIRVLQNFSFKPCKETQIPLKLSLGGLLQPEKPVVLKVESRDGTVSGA"}, "[2]": {"molecular_target": "T2, Polyadenylate-binding protein 1 (Homo sapiens, UniProt P11940)", "T2 sequence (P11940 whole entry, the tested form may be a part)": "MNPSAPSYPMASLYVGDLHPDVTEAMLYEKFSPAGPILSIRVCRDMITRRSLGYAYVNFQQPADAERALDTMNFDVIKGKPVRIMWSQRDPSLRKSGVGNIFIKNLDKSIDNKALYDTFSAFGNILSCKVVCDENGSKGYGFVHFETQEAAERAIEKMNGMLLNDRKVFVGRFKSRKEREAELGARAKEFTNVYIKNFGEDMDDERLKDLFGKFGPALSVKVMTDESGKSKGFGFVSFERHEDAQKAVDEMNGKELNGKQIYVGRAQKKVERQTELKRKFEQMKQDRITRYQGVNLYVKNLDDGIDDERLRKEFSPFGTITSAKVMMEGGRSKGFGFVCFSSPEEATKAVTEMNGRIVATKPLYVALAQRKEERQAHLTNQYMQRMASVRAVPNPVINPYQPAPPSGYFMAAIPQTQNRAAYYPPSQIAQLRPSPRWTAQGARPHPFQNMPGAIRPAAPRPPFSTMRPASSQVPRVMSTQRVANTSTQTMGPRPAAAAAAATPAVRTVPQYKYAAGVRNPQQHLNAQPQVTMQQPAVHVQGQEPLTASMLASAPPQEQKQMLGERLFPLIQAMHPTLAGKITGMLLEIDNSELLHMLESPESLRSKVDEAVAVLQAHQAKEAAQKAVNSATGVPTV", "test": "MLLE domain peptide-binding blockers, IC50 – biochemical, fluorescence polarization, FITC-PAM2 peptide, dose response (AID 602259)", "type": "functional", "settings": "read-out: IC50_Mean"}, "[3]": {"molecular_target": "T2, Polyadenylate-binding protein 1", "test": "MLLE binding blockers, Cy5 peptide tracer – biochemical, fluorescence polarization, Cy5-PAM2 peptide, secondary, miRNA deadenylation inhibitor project, dose response (AID 602260)", "type": "functional", "settings": "read-out: IC50_Mean"}, "[4]": {"molecular_target": "T3, Endoribonuclease toxin MazF (Escherichia coli K-12, UniProt P0AE70)", "T3 sequence (P0AE70 whole entry)": "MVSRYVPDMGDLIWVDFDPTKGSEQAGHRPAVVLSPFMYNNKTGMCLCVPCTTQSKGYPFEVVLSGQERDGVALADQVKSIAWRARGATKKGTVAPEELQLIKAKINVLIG", "test": "substrate-only fluorescence increase artefacts – biochemical, single-stranded RNase substrate, counter-screen for MazEF activator project, dose response (AID 588502)", "type": "functional"}, "[5]": {"molecular_target": "T3, Endoribonuclease toxin MazF", "test": "activation of MazEF endoribonuclease cleavage – biochemical, fluorescence, single-stranded RNA substrate, uHTS hits, dose response (AID 588481)", "type": "functional"}, "Fatty acid synthase [6]": {"molecular_target": "T4, Fatty acid synthase (Homo sapiens, UniProt P49327)", "T4 sequence (P49327 whole entry)": "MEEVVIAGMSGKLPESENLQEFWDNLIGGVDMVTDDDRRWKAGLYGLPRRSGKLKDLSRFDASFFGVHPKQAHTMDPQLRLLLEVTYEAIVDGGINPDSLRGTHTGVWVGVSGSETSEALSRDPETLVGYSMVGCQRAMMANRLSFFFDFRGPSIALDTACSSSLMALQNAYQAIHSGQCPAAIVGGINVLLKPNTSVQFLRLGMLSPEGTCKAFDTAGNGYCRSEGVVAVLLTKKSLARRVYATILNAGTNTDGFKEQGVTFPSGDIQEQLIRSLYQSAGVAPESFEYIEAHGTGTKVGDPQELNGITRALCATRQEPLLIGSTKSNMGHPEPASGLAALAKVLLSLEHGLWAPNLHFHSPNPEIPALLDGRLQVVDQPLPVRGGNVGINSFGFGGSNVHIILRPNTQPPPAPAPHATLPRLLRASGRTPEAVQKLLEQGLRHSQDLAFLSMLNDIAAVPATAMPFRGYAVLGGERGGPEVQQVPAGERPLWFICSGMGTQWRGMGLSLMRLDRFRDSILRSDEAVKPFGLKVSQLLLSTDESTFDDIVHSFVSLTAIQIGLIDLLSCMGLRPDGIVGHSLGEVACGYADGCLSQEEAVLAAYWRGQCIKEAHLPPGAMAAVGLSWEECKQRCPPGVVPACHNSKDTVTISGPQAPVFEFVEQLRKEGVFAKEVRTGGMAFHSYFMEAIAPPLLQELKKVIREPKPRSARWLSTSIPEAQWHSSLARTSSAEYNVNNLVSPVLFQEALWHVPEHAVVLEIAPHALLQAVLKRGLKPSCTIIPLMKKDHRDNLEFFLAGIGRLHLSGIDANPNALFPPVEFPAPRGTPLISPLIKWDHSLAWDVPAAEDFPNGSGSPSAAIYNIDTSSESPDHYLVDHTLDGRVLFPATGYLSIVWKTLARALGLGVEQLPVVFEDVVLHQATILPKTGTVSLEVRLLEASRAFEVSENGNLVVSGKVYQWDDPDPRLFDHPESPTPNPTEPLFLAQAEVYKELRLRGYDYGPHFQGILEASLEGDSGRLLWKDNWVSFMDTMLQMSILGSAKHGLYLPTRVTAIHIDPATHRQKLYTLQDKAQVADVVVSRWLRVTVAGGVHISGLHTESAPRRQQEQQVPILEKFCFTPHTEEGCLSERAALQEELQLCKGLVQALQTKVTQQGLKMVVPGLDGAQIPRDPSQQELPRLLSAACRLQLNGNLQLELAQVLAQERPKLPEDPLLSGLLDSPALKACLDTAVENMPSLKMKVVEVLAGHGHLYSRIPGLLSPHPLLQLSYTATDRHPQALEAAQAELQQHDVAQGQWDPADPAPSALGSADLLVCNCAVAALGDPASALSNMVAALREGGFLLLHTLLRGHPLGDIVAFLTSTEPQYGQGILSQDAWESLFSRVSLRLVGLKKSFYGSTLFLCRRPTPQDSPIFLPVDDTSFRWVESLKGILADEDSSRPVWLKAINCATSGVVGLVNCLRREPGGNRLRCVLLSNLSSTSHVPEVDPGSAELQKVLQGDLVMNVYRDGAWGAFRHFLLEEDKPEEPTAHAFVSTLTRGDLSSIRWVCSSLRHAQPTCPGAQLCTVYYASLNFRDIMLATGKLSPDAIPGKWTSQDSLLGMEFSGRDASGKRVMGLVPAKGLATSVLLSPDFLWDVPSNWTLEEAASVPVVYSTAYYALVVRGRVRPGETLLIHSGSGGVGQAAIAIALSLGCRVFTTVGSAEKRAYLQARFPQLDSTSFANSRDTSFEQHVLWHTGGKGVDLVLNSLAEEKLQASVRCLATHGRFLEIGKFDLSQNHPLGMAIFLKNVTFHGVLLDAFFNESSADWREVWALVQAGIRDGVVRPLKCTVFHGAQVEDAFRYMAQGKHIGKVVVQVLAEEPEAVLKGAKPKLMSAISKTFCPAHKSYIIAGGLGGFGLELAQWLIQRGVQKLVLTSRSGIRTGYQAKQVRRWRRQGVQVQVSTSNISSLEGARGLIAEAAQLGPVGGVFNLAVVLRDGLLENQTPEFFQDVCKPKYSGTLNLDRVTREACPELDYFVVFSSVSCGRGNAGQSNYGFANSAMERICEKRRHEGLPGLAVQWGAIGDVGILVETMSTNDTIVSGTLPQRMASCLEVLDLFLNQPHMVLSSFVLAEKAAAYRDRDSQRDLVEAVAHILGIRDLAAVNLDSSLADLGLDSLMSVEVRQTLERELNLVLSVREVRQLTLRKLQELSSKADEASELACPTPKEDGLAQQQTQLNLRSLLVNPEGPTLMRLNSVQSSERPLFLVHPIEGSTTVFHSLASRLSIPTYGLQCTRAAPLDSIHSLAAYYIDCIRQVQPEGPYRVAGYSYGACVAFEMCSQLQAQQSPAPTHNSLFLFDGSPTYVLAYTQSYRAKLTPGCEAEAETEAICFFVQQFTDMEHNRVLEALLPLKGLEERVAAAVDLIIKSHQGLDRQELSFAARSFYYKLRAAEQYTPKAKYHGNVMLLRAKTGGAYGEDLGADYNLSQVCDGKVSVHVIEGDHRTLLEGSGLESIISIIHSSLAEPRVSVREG", "test": "inhibition of human FAS-TE enzyme activity – biochemical, kinetic fluorescence intensity, dose response (AID 624326);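 further: rate of fluorescence rise from hydrolysis of a fluorogenic O-methyl fluorescein ester substrate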", "type": "functional"}, "Fatty acid synthase [7]": {"molecular_target": "T4, Fatty acid synthase", "test": "inhibition of human FAS-TE enzyme activity – biochemical, endpoint fluorescence intensity, uHTS hits, dose response (AID 624327);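 further: fluorescence from hydrolysis of an O-methyl fluorescein acyl ester substrate by the enzyme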", "type": "functional"}, "Cytochrome P450 3A4 [8]": {"molecular_target": "T1, Cytochrome P450 3A4", "remark": "listed apart in the source"}, "[9]": {"test": "MIN6 cell viability loss – mouse insulinoma, cytotoxicity control, dose response (AID 2122);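 further: confirmatory high-throughput counterscreen run to flag cytotoxic compounds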", "type": "functional"}, "[10]": {"test": "decrease of insulin promoter-GFP reporter – imaging, high-content screening, mouse beta cells (AID 1628)", "type": "functional", "settings": "MIN6"}, "cells [11]": {"test": "cells", "type": "functional, cell-based"}, "cells [12]": {"test": "cells", "type": "functional, cell-based", "remark": "listed apart in the source"}, "[13]": {"test": "Luminescence Cell-Based Dose Confirmation HTS to Identify Activators of 5'UTR Stem-Loop Driven Alpha-Synuclein mRNA Translation in H4 Neuroglioblastoma Cells. [Related pubchem assays: 1829 (Project Summary), 1814 (Primary HTS)]", "type": "functional"}, "[14]": {"test": "Luminescence Cell-Based Dose Response HTS to Identify Activators of Luciferase Translation or Activity in H4 […] Cells. [Related pubchem assays: 1829 (Project Summary), 1814 (Primary HTS)]", "type": "functional"}, "H4": {"tested_on": "H4", "test": "Luminescence Cell-Based Dose Response HTS to Identify Activators of 5'UTR Stem-Loop Driven Prion Protein mRNA Translation in H4 Neuroglioblastoma Cells. [Related pubchem assays: 1829 (Project Summary), 1814 (Primary HTS)]", "type": "functional", "settings": "Homo sapiens"}, "Cytochrome P450 1A2": {"molecular_target": "T5, Cytochrome P450 1A2 (Homo sapiens, UniProt P05177)", "T5 sequence (P05177 whole entry)": "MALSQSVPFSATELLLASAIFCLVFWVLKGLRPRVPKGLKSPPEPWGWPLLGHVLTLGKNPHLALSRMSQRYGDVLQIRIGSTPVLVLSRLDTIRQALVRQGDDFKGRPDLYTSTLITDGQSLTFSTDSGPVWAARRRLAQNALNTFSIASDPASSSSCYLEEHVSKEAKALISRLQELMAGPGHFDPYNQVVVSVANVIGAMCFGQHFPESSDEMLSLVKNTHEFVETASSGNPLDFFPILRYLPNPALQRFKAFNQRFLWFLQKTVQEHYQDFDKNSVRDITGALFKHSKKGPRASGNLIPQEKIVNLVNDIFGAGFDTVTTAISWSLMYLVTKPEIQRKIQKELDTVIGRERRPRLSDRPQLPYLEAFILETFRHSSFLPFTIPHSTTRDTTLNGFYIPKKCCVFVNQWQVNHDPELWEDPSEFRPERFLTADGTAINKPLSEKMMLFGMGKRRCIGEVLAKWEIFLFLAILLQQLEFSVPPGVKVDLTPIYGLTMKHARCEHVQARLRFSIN"}, "H9c2": {"tested_on": "H9c2", "test": "cells", "type": "functional, cell-based", "settings": "Rattus norvegicus, H9c2, Myocardium"}, "Nonstructural protein 1": {"molecular_target": "Nonstructural protein 1 (Influenza A virus, UniProt Q194T2)", "sequence (Q194T2 whole entry)": "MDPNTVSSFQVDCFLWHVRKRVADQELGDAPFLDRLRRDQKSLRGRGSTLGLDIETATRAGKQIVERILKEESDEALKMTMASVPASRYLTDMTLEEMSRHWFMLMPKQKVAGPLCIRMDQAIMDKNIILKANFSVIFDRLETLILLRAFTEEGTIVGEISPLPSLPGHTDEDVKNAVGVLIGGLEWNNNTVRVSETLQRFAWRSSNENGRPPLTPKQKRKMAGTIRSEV", "type": "functional, Influenza A virus (A/California/07/2009(H1N1))"}, "[15]": {"test": "NIH-3T3 fibroblast cytotoxicity, dose response, cytotoxicity control, cell-based, fluorescence, Alamar Blue, secondary assay (AID 2327);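 further: NIH-3T3 mouse fibroblasts cultured with fluconazole at 8 µg/mL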", "type": "functional"}, "[16]": {"test": "fluconazole-exposed Candida albicans growth modulators – fluorescence, retest, confirmation (AID 2467)", "type": "functional, cell-based"}, "Paired box protein Pax-8": {"molecular_target": "Paired box protein Pax-8 (Homo sapiens, UniProt Q06710)", "test": "PAX8 transcriptional activity inhibition in RMG-I – RMG-I cells, luciferase, cherry-pick, dose response (AID 687027);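 further: luciferase reporter driven by Pax8 target thyroperoxidase promoter measured by SteadyGlo luminescence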", "type": "functional, cell-based"}, "[17]": {"test": "OVCAR-3 cell viability loss – plate reader, dry powder samples, PAX8 inhibitor project, dose response (AID 743044)", "type": "functional, cell-based"}, "[18]": {"test": "OVCAR8 cell viability loss – plate reader, dry powder samples, PAX8 project, dose response (AID 743197)", "type": "functional, cell-based", "settings": "OVCAR-8"}, "[19]": {"test": "THP-1 cell cytotoxicity, dose response, cytotoxicity control for non-replicating M. tuberculosis project (AID 489025)", "type": "functional"}, "[20]": {"test": "Vero E6 cell cytotoxicity, dose response, cytotoxicity control for non-replicating M. tuberculosis project, secondary assay (AID 492998)", "type": "functional, VeroE6", "settings": "Vero C1008"}, "INS1": {"tested_on": "INS1", "test": "INS-1E survival protection against cytokine death – cell-based, luminescence, retest, dose response (AID 449756);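 further: cell death triggered by IL-1 beta plus TNF-alpha plus IFN-gamma mixture; protective hits raise ATP signal compared with cytokine alone wells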", "type": "functional", "settings": "Rattus norvegicus"}},
  "note": "Activity calls are given as the source filed them.",
  "data": [
    {"smiles": "CCCn1nc2cc(C(=O)NC3CCCc4ccccc43)ccc2c1OCC", "note": "(centres undefined)", "values": [
      {"measurement": "AC50", "setting": "Cytochrome P450 2C9", "value": "inconclusive"},
      {"measurement": "AC50", "setting": "Cytochrome P450 2D6", "value": "25.1 µM (inconclusive)"},
      {"measurement": "AC50", "setting": "Cytochrome P450 3A4 [1]", "value": "15.8 µM (inconclusive)"}
    ]},
    {"smiles": "CCC1CCCCN1C(=S)NC(=O)c1cccc([N+](=O)[O-])c1", "note": "(centres undefined)", "values": [
      {"measurement": "IC50", "setting": "[2]", "value": "> 66 µM (inactive)"},
      {"measurement": "IC50", "setting": "[3]", "value": "> 66 µM (inactive)"}
    ]},
    {"smiles": "COc1ccc(OCCNc2cc(Cl)ccc2[N+](=O)[O-])cc1", "values": [
      {"measurement": "EC50", "setting": "[4]", "value": "> 99 µM (inactive)"},
      {"measurement": "EC50", "setting": "[5]", "value": "> 99 µM (inactive)"}
    ]},
    {"smiles": "O=C(CSc1ccc([N+](=O)[O-])cn1)Nc1ccc2c(c1)OCO2", "values": [
      {"measurement": "IC50", "setting": "Fatty acid synthase [6]", "value": "0.951 µM (active)"},
      {"measurement": "IC50", "setting": "Fatty acid synthase [7]", "value": "0.981 µM (active)"}
    ]},
    {"smiles": "COc1ccc(C(=O)N2CCC3(CC2)CCN(c2ccccc2)CC3)cc1", "values": [
      {"measurement": "AC50", "setting": "Cytochrome P450 3A4 [8]", "value": "inconclusive"}
    ]},
    {"smiles": "COc1ccccc1OCC(=O)Sc1ccc(C)cc1", "values": [
      {"measurement": "IC50", "setting": "[2]", "value": "> 66 µM (inactive)"},
      {"measurement": "IC50", "setting": "[3]", "value": "> 66 µM (inactive)"}
    ]},
    {"smiles": "Cc1cc(C(=O)CSc2nc3ccccc3[nH]2)c(C)n1Cc1ccco1", "values": [
      {"measurement": "IC50", "setting": "[9]", "value": "1.29 µM (active)"},
      {"measurement": "IC50", "setting": "[10]", "value": "1.93 µM (active)"}
    ]},
    {"smiles": "COc1ccc2oc(=O)c(C(=O)NC3CCCCCC3)cc2c1", "values": [
      {"measurement": "EC50", "setting": "cells [11]", "value": "> 350 µM (not active)"},
      {"measurement": "EC50", "setting": "cells [12]", "value": "> 350 µM (not active)"},
      {"measurement": "EC50", "setting": "[13]", "value": "28.6 µM (active)"},
      {"measurement": "EC50", "setting": "[14]", "value": "32.6 µM (active)"},
      {"measurement": "EC50", "setting": "H4", "value": "19.8 µM (active)"}
    ]},
    {"smiles": "O=C(c1cccc(F)c1)N1CCC2(CC1)CCN(c1ccccc1)CC2", "values": [
      {"measurement": "AC50", "setting": "Cytochrome P450 3A4 [8]", "value": "inconclusive"}
    ]},
    {"smiles": "COc1ccc(OC)c(C2=Nn3c(nnc3-c3cc(C)[nH]n3)SC2)c1", "values": [
      {"measurement": "EC50", "setting": "cells [11]", "value": "> 350 µM (not active)"},
      {"measurement": "EC50", "setting": "cells [12]", "value": "> 350 µM (not active)"}
    ]},
    {"smiles": "O=C1C=C(c2ccccc2)CC(c2cccs2)C1n1cnc([N+](=O)[O-])c1", "note": "(centres undefined)", "values": [
      {"measurement": "EC50", "setting": "cells [11]", "value": "> 350 µM (not active)"},
      {"measurement": "EC50", "setting": "cells [12]", "value": "> 350 µM (not active)"}
    ]},
    {"smiles": "CCS(=O)(=O)N1CCN(c2c(Cl)cccc2[N+](=O)[O-])CC1", "values": [
      {"measurement": "AC50", "setting": "Cytochrome P450 1A2", "value": "15.8 µM (inconclusive)"},
      {"measurement": "AC50", "setting": "Cytochrome P450 3A4 [8]", "value": "inconclusive"}
    ]},
    {"smiles": "O=[N+]([O-])c1ccc(S(=O)(=O)Nc2ccc(-c3ccccc3)cc2)cc1", "values": [
      {"measurement": "IC50", "setting": "Fatty acid synthase [6]", "value": "6.47 µM (active)"},
      {"measurement": "IC50", "setting": "Fatty acid synthase [7]", "value": "5.95 µM (active)"}
    ]},
    {"smiles": "CCOc1cccc(-c2c(C(=O)N/N=C(\\C)c3ccccn3)nnn2-c2nonc2N)c1", "values": [
      {"measurement": "EC50", "setting": "cells [11]", "value": "6.32 µM (active)"},
      {"measurement": "EC50", "setting": "cells [12]", "value": "> 350 µM (not active)"},
      {"measurement": "IC50", "setting": "H9c2", "value": "> 79 µM (inactive)"},
      {"measurement": "IC50", "setting": "Nonstructural protein 1", "value": "3.36 µM (active)"},
      {"measurement": "EC50", "setting": "[15]", "value": "18.2 µM (active)"},
      {"measurement": "EC50", "setting": "[16]", "value": "> 38 µM (not active)"}
    ]},
    {"smiles": "C/C(=N\\NC(=S)NCCc1ccccc1)c1cccc(Br)c1", "values": [
      {"measurement": "IC50", "setting": "[2]", "value": "> 66 µM (inactive)"},
      {"measurement": "IC50", "setting": "[3]", "value": "> 66 µM (inactive)"}
    ]},
    {"smiles": "C[C@@H]1CCCCO[C@H](CN(C)C(=O)Nc2ccc(F)cc2)[C@@H](C)CN([C@@H](C)CO)C(=O)c2cc(NS(=O)(=O)c3ccc(Cl)cc3)ccc2O1", "values": [
      {"measurement": "AC50", "setting": "Paired box protein Pax-8", "value": "4.84 µM (active)"},
      {"measurement": "AC50", "setting": "[17]", "value": "19.6 µM (active)"},
      {"measurement": "AC50", "setting": "[18]", "value": "35 µM (active)"}
    ]},
    {"smiles": "CCOc1ccc(C(=O)N/N=C(/C)C2C(=O)c3ccccc3C2=O)cc1", "values": [
      {"measurement": "CC50", "setting": "[19]", "value": "> 40 µM (active)"},
      {"measurement": "CC50", "setting": "[20]", "value": "> 20 µM (active)"}
    ]},
    {"smiles": "COc1ccc(/C=N/NC(=O)c2nc(-c3ccccc3)n(-c3ccccc3)n2)c(O)c1", "values": [
      {"measurement": "AC50", "setting": "INS1", "value": "1.47 µM (active)"},
      {"measurement": "EC50", "setting": "cells [11]", "value": "10.1 µM (active)"},
      {"measurement": "EC50", "setting": "cells [12]", "value": "> 350 µM (not active)"}
    ]}
  ]
}
